Laboratory results from patent publication US20150306165A1, “PLANT EXTRACT COMPOSITION FOR INHIBITING ADIPOCYTES, REDUCING BODY FAT, PROMOTING WEIGHT LOSS AND INCREASING LIPID METABOLISM AS WELL AS APPLICATION THEREOF” (CALIWAY BIOMEDICAL CO., LTD., priority 2014, published 2015).
Marks after values point to notes of the source that are not given here.

How the values were obtained:
[1] = Animal assay (IV): high fat diet mice, 8 weeks, weight gain and fat; format: in vivo, B6 strain male mice
Experimental: B6 strain male mice were used in this example. There were five groups for test, respectively as the obese group, the resveratrol (61.5 mg/kg BW), the green tea extract (123 mg/kg BW), and experimental groups such as the formulation LB001 (338.25 mg/kg BW) and the formulation LB0008 (326 mg/kg BW). Five male animals were used in each group. During the test, high fat diets and experimental substrates were fed for all groups to induce obesity during eight weeks. In the experimental duration, weight and the average daily intake were recorded. In the end of the experiment, the mice were sacrificed to weight epididymis fat, perinephric fat, and mesenteric fat and calculate the total amount of visceral fat; groin fat and extra-abdominal fat were weighed to calculate the amount of subcutaneous fat.

[2] = Animal assay (I): high fat diet rats, weight gain and body fat; format: in vivo, Sprague-Dawley (SD) male rats; conditions: positive control group
Experimental: Sprague-Dawley (SD) male rats were used in this example. There were six groups for test, respectively as a normal group, an obese group, a positive control group (Orlistat®, 18.6 mg/kg BW), a low-dose experimental group (the formulation LB004: 223.2 mg/kg BW), a medium-dose experimental group (the formulation LB004: 446.4 mg/kg BW), and a high-dose experimental group (the formulation LB004: 892.8 mg/kg BW). Ten male rats were used in each group. During the 8-week experiment period, high fat diets were fed ad libitum for all groups except […]. Three formulation LB004 doses of the present invention were orally given simultaneously during the experiment and body weight loss and lipid mass reduction were evaluated. Bodyweight, food and water intake were recorded weekly. In the end of the test, total amount of fat and the percentage of fat dry weight were determined.
In the end of the experiment, the rats were sacrificed. Epididymis fat, perinephric fat, and mesenteric fat were weighted and the total amount of internal fat was calculated. In addition, the fat of groin and the extraperitoneal fat were weighted to calculate the amount of subcutaneous fat.
In addition, the wet weights of rat bodies were weighed. Then the rat bodies were dried in an oven at 105° C. to constant dry weight for measuring dry weights of the rat bodies. The rat bodies were pulverized by uniform homogenizer. The percentage of dry weight and the amount of crude fat of whole animals is calculated by diethyl ether extraction at 2 to 3 different sampling points.

Structure (SMILES)	visceral fat, subcutaneous fat, and total fat mass compared with the obese group ([1]; resveratrol 61.5 mg/kg BW, FIG. 10)	inhibitory effect on weight gain ([1]; resveratrol alone 61.5 mg/kg BW, FIG. 9)	fat (dry weight) ([2]; 18.6 mg/kg B.W., 8 weeks)	total fat mass ([2]; 18.6 mg/kg B.W., 8 weeks)	total weight gain ([2]; 18.6 mg/kg B.W., 8 weeks)	body fat decrease compared with the obese group ([2]; 18.6 mg/kg BW) [%]	body weight decline compared with the obese group ([2]; 18.6 mg/kg BW) [%]	decrease of percentage of fat dry weight compared with the obese group ([2]; 18.6 mg/kg BW) [%]
Oc1ccc(C=Cc2cc(O)cc(O)c2)cc1 [resveratrol]	no statistical difference	poor and had no statistical difference from the obese group						
CCCCCCCCCCC[C@@H](C[C@@H]1OC(=O)[C@H]1CCCCCC)OC(=O)[C@H](CC(C)C)NC=O [Orlistat®, Orlistat]			31.6 ± 6.0^a %	38.1 ± 8.8^c g	240.1 ± 24.4^c g	23.9	12.0	17.4
